System: Musca domestica
Assay: Insecticidal activity against Musca domestica (house fly) assessed as mortality per fly pretreated with piperonyl butoxide measured after 24 hr
Format: functional

COC[C@@H]1Oc2cc([C@H]3OC[C@]4(O)[C@@H](Oc5ccc6c(c5)OCO6)OC[C@H]34)c(OC)cc2O[C@H]1c1ccc2c(c1)OCO2 (racemic)
LD50: >5 µg

COC[C@H]1Oc2cc([C@H]3OC[C@]4(O)[C@@H](Oc5c(OC)cc6c(c5OC)OCO6)OC[C@H]34)c(OC)cc2O[C@@H]1c1ccc2c(c1)OCO2 (racemic) [(+)-HAEDOXAN A]
LD50: 0.00025 µg

COCC1Cc2cc([C@@H]3OC[C@]4(O)[C@@H](Oc5c(OC)cccc5OC)OC[C@H]34)c(OC)cc2OC1c1ccc2c(c1)OCO2 (mixture of isomers)
LD50: >10 µg

COCC1Oc2cc([C@H]3OC[C@]4(O)[C@@H](Oc5ccc6c(c5)OCO6)OC[C@H]34)c(OC)cc2OC1c1ccc2c(c1)OCO2 (mixture of isomers)
LD50: 0.18 µg

COCC1Cc2cc([C@H]3OC[C@]4(O)[C@@H](Oc5c(OC)cccc5OC)OC[C@H]34)c(OC)cc2OC1c1ccc2c(c1)OCO2 (mixture of isomers)
LD50: 1 µg

COCC1Oc2cc([C@H]3OC[C@]4(O)[C@@H](Oc5c(OC)cccc5OC)OC[C@H]34)c(OC)cc2CC1c1ccc2c(c1)OCO2 (mixture of isomers)
LD50: 0.005 µg

COC[C@H]1Oc2cc([C@H]3OC[C@]4(O)[C@@H](Oc5ccc6c(c5)OCO6)OC[C@H]34)c(OC)cc2O[C@@H]1c1ccc2c(c1)OCO2 [(+)-HAEDOXAN E]
LD50: 0.05 µg

COC[C@H]1Oc2cc([C@H]3OC[C@]4(O)[C@@H](Oc5ccc6c(c5)OCO6)OC[C@H]34)c(OC)cc2O[C@@H]1c1ccc2c(c1)OCO2 (racemic) [(+)-HAEDOXAN E]
LD50: 0.1 µg
